Experimental data from patent publication US20070213366A1, “Treatment of Synucleinopathies” (priority 2005, published 2007).
Entries after “also recorded” stand apart in the source; their conditions may differ.

What was measured:
α-synuclein [1] = experiment: α-synuclein degradation/accumulation assay in COS-7 cells; assay type: cell-based
Text: Plasmids: C220S cDNA was generated by PCR site-specific mutagenesis. For the PCR, the 5′ primer is uchforw SEQ ID NO: 1 ([…]), and 3′ primer is uchc220s SEQ ID NO:2 (CTAAGA […]). Wt UCH-L1 served as the template. The PCR fragment was inserted into pcDNA vector. For S 18YC220S mutant, S18Y UCH-L1 served as the template in PCR. For the FLAG tagged UCH-L1, the 5′ primer is FLAGuchforw SEQ ID NO: 3 ([…] CGATGGAG), and the 3′ primer is uchrev SEQ ID NO: 4 ([…]). Wt UCH-L1 or C220S served as the template. PCR fragment was purified and inserted into pcDNA vector. For the FLAG tagged UCH-L3, the 5′ primer is L3HindIII SEQ ID NO: 5 (CTAAAGCTTATGGACTAC […]), the 3′primer is L3XhoISAA SEQ ID NO: 6 ([…]). For the UCH-L3 CKAA variant, the 5′ primer is L3 HindIII and the 3′ primer is L3XhoICKAA SEQ ID NO: 7 ([…]). α-synuclein degradation assay: Lipofectamine 2000 was used to transfect COS-7 cells according to the Invitrogen protocol. Transfected cells were cultured at 37° C. for 48 hours before being treated with 35 μM lactacystin or DMSO. After 24 hours of incubation, the cells were lysed with Tris buffer (50 mM Tris, 2% SDS, 0.1% NP-40), and subjected to SDS-PAGE, followed by quantitative Western blotting.
In order to isolate the latter possibility, a mutant form of UCH-L3 was constructed in which the UCH-L1 farnesylation sequence was added to the UCH-L3 C-terminus. […]

α-synuclein [2] = experiment: Western blot of α-synuclein in SH-SY5Y cells infected with α-synuclein-expressing adenovirus; assay type: cell-based; details: normalized against actin
Protocol: Western Blotting: Following transfer of SDS gels onto NC membrane, all membranes were blocked with 5% non-fat milk in TBST (50 mM Tris-HCl pH7.4, 150 mM NaCl, 0.1% Tween 20), and incubated with primary antibody overnight with 1% BSA in TBST, washed three times with TBST, and incubated with horseradish peroxidase-conjugated secondary antibody for 1 hour (Promega). Bound antibodies were detected using enhanced chemiluminascence (NEM).
Since α-synuclein neurotoxicity is dose-dependent, it follows that accumulation of α-synuclein, caused by UCH-L1 farnesylation, should promote its toxicity. […] These cells express high endogenous levels of UCH-L1. […] The unit of y-axis is 10^5/ml. (F) Cell viability was assessed by the amount of metabolic activity using MTT assay. […] The effect of FTI-277 on the α-synuclein accumulation in the SH-SY5Y infected with α-synuclein-expressing adenovirus were analyzed by Western blotting (B) and the amount of α-synuclein (C) was quantified using NIH Image program and normalized against the amount of actin.

UCH-L1 [3] = experiment: 2D electrophoresis and Western blot of membrane-bound and cytosolic UCH-L1 in SH-SY5Y cells; assay type: cell-based; details: compared to DMSO
Protocol: Membrane fractionation: Cells were harvested by scraping and washed with PBS. Cell pellet was suspended in lysis buffer (50 mM Tris-HCl, 1 mM EDTA) supplemented with protease inhibitor cocktail (Sigma) and homogenized by passing through 26G needles 10 times. Suspension was clarified by spinning at 600 g for 5 minutes. Clarified suspension was ultracentrifuged at 100,000 g for 2 hours and separated into membrane and cytosol. Membrane fraction washed with washing buffer (50 mM Tris-HCl, 1 mM EDTA 1 M NaCl), and pelleted each time with bench-top centrifuge.
2D electrophoresis: For the isolation of total cellular protein, cultured SH-SY5Y cells maintained as described above were rinsed with ice-cold PBS. Cells were lysed in 1 ml dSDS buffer (50 mM Tris-HCl, pH 8.0 0.1% SDS) supplemented with protease inhibitor cocktail. Lysates were boiled for 3 min, and were treated with Dnase and Rnase as described. […]
Western Blotting: Following transfer of SDS gels onto NC membrane, all membranes were blocked with 5% non-fat milk in TBST (50 mM Tris-HCl pH7.4, 150 mM NaCl, 0.1% Tween 20), and incubated with primary antibody overnight with 1% BSA in TBST, washed three times with TBST, and incubated with horseradish peroxidase-conjugated secondary antibody for 1 hour (Promega). Bound antibodies were detected using enhanced chemiluminascence (NEM). […]

[4] = system: primary dopaminergic cultures; experiment: α-synuclein toxicity in primary dopaminergic cultures; assay type: cell-based
[5] = system: SH-SY5Y cells overexpressing α-synuclein; experiment: Viability (Trypan blue, MTT) of SH-SY5Y cells infected by α-synuclein-expressing adenovirus; assay type: cell-based
Protocol: Viral Infection: Viral infection and MTT assay in SH-SY5Y cells: The viruses were amplified and purified according to the published procedure. SH-SY5Y cells were grown on 100 mm petri-dishes and induced with 100 nM retinoic acid for 3-5 days before the virus infection with M.I.O at 75. Viruses were diluted with DPBS to desired M.I.O. After four hours of incubation, 10 ml growth medium was added. On the second day, cells were splitted into 96-well plates and treated with compounds for next 48 hours. The growth medium in each well was replaced with growth medium with 5 ug/ml MTT. Medium was removed after three hours incubation, and 200 ul isopropyl (0.04N HCl) was added into each well. The signal was read at 570 nm.
Viable cell counting: At stated time poins, SH-SY5Y cells were trypsinized with 100 ul trypsin-EDTA for 1 minute and neutralized with 400 ul growth medium. Cell suspension was made up by mixing 0.2 ml of cells in growth medium, 0.3 ml of HBSS and 0.5 ml of 0.4% Trypan Blue solution. Viable cell numbers were counted by standard cell counting chamber.
Since α-synuclein neurotoxicity is dose-dependent, it follows that accumulation of α-synuclein, caused by UCH-L1 farnesylation, should promote its toxicity. […] These cells express high endogenous levels of UCH-L1. […] The unit of y-axis is 10^5/ml. (F) Cell viability was assessed by the amount of metabolic activity using MTT assay. […]

UCH-L1 [6] = experiment: Total amount and turnover (pulse-chase) of UCH-L1 in SH-SY5Y cells; assay type: cell-based
[7] = system: Lewy body-like inclusions; experiment: Campbell Switzer silver staining of Lewy body-like inclusions in α-synuclein transgenic mice; assay type: in vivo; details: 35 mg/kg twice a day for 30 days, vs vehicle
Protocol: (§1) Farnesyl transferase inhibitors Zarnestra and OSI-754 were administered to mice of the α-synuclein transgenic line described in Masliah et al. (Masliah et al. “Dopaminergic loss and inclusion body formation in alphα-synuclein mice: implications for neurodegenerative disorders” Science 287(5456): 1265-69, 2000; incorporated herein by reference). Animals from this line have α-synuclein neuronal inclusions in the cortex, hippocampus, and the olfactory bulb (Masliah et al. “Dopaminergic loss and inclusion body formation in alphα-synuclein mice: implications for neurodegenerative disorders” Science 287(5456): 1265-69, 2000; incorporated herein by reference). Transgenic mice were orally administered either FTI in 20% cyclodextrin solution or the same volume of vehicle alone twice a day for 30 or 90 days. In some cases, non-transgenic mice also received vehicle twice a day for 30 to 90 days. At the end of treatment, mice were sacrificed, and the brains removed and hemisected. […]
(§2) Formation of α-synuclein inclusions in the cortex and hippocampus was probed by immunostaining with an antibody for full-length human α-synuclein. Cells positive for human α-synuclein were quantified. […] These regions were also analyzed for ubiquitin-immunoreactive inclusions and by the Campbell Switzer method of silver staining. […]

[8] = system: ubiquitin-immunoreactive inclusions; experiment: Ubiquitin immunohistochemistry in α-synuclein transgenic mice; assay type: in vivo; details: 35 mg/kg twice a day for 30 days, vs vehicle
Protocol: as §1, §2

human α-synuclein = experiment: Immunostaining of α-synuclein inclusions in cortex and hippocampus of α-synuclein transgenic mice; assay type: in vivo
Protocol: Farnesyl transferase inhibitors Zarnestra and OSI-754 were administered to mice of the α-synuclein transgenic line described in Masliah et al. (Masliah et al. “Dopaminergic loss and inclusion body formation in alphα-synuclein mice: implications for neurodegenerative disorders” Science 287(5456): 1265-69, 2000; incorporated herein by reference). Animals from this line have α-synuclein neuronal inclusions in the cortex, hippocampus, and the olfactory bulb (Masliah et al. “Dopaminergic loss and inclusion body formation in alphα-synuclein mice: implications for neurodegenerative disorders” Science 287(5456): 1265-69, 2000; incorporated herein by reference). Transgenic mice were orally administered either FTI in 20% cyclodextrin solution or the same volume of vehicle alone twice a day for 30 or 90 days. In some cases, non-transgenic mice also received vehicle twice a day for 30 to 90 days. At the end of treatment, mice were sacrificed, and the brains removed and hemisected. One hemisphere of each was fixed in 4% paraformaldehyde/PBS (pH 7.4), cryoperserved, then sectioned for histology. The other hemisphere was subdivided into four brain regions, including the cortex and hippocampus, that were homogenized and processed into cytoplasmic and membrane fractions.
Formation of α-synuclein inclusions in the cortex and hippocampus was probed by immunostaining with an antibody for full-length human α-synuclein. Cells positive for human α-synuclein were quantified. […] These regions were also analyzed for ubiquitin-immunoreactive inclusions and by the Campbell Switzer method of silver staining. Ubiquitin is known to be a constituent of Lewy Bodies and in the α-synculein inclusions found in the transgenic mouse line used in the study (Masliah et al. “Dopaminergic loss and inclusion body formation in alphα-synuclein mice: implications for neurodegenerative disorders” Science 287(5456): 1265-69, 2000; incorporated herein by reference). […] Campbell-Switzer staining is a general marker of Lewy Body type inclusions (Uchihara et al. “Silver stainings distinguish Lewy bodies and glial cytoplasmic inclusions: comparison between Gallyas-Braak and Campbell-Switzer methods” Acta Neuropathol. (Berl) 110(3):255-60, 2005; incorporated herein by reference).
Formation of α-synuclein inclusions in the cortex and hippocampus was probed by immunostaining with an antibody for full-length human α-synuclein. Cells positive for human α-synuclein were quantified.

farnesylated UCH-L1 = experiment: Quantitative Western blot of farnesylated UCH-L1 in cortex membrane fraction of α-synuclein transgenic mice; assay type: in vivo
Protocol: (§3) Farnesyl transferase inhibitors Zarnestra and OSI-754 were administered to mice of the α-synuclein transgenic line described in Masliah et al. (Masliah et al. “Dopaminergic loss and inclusion body formation in alphα-synuclein mice: implications for neurodegenerative disorders” Science 287(5456): 1265-69, 2000; incorporated herein by reference). Animals from this line have α-synuclein neuronal inclusions in the cortex, hippocampus, and the olfactory bulb (Masliah et al. “Dopaminergic loss and inclusion body formation in alphα-synuclein mice: implications for neurodegenerative disorders” Science 287(5456): 1265-69, 2000; incorporated herein by reference). Transgenic mice were orally administered either FTI in 20% cyclodextrin solution or the same volume of vehicle alone twice a day for 30 or 90 days. […]
(§4) Treatment with 35 mg/kg Zarnestra twice a day for 30 days decreased levels of α-synuclein protein in the cortex and the amount of farnesylated UCH-L1 in the cortex of transgenic mice. Total α-synuclein levels were analyzed by a sandwich ELISA assay similar to one previously described (El-Agnaf et al. “Detection of oligomeric forms of alphα-synuclein protein in human plasma as a potential biomarker for Parkinson's disease” FASEB J. 20(3):419-25, 2006; incorporated herein by reference). […] The amount of UCH-L1 was determined by quantitative Western Blot. […]

α-synuclein [9] = experiment: Sandwich ELISA of total α-synuclein in cortex fractions of α-synuclein transgenic mice; assay type: in vivo; details: 45 mg/kg twice a day for 30 days, vs vehicle-treated transgenic mice
Protocol: as §3, §4

[10] = 35 mg/kg twice a day for 30 days, vs vehicle
[11] = 9 mg/kg twice a day for 90 days, vs vehicle
[12] = 45 mg/kg twice a day for 90 days, vs vehicle

COC(=O)[C@H](CCSC)NC(=O)c1ccc(NC[C@@H](N)CS)cc1-c1ccccc1 [FTI-277]
synuclein level (α-synuclein [1]; COS-7 cells): lowers synuclein level
amount of α-synuclein (α-synuclein [2]): reducing the amount of α-synuclein accumulation; also recorded: reduced the amount of α-synuclein
amount of cytosolic UCH-L1 (UCH-L1 [3]): without affecting
amount of membrane bound UCH-L1 (UCH-L1 [3]): significant decrease; also recorded: decreased the amount of the membrane-associated species; also recorded: reducing the amount of membrane-associated protein
α-synuclein toxicity [4]: inhibit α-synuclein toxicity
α-synuclein toxicity / loss of cells ([5]; SH-SY5Y cells overexpressing α-synuclein via adenovirus, compared to DMSO): inhibits synuclein toxicity; also recorded: rescued α-synuclein toxicity; also recorded: significantly decreased loss of cells
neuroprotective effect of FTI-277 on co-administration of the small-molecule UCH-L1 inhibitor ([5]; SH-SY5Y cells overexpressing α-synuclein, not shown): eliminated
total amount of UCH-L1 (UCH-L1 [6]): reduced the total amount of UCH-L1
rate of turnover of UCH-L1 (UCH-L1 [6]; pulse-chase experiment not shown): increased its rate of turnover

CC(=O)N[C@@H](CSC(=O)[C@]1([C@@H](O)C(C)C)NC(=O)[C@H](C)[C@@H]1O)C(=O)O [lactacystin]
accumulation of α-synuclein (α-synuclein [1]; transfected COS-7 cells, 16 kDa α-synuclein normalized against actin, sets the scale): 100%

Cn1cncc1[C@@](N)(c1ccc(Cl)cc1)c1ccc2c(c1)c(-c1cccc(Cl)c1)cc(=O)n2C [Zarnestra]
Campbell-Switzer stained inclusions [7]: fewer inclusions
ubiquitin-immunoreactive inclusions [8]: fewer ubiquitin-immuoreactive inclusions
α-synuclein-positive cells per mm, cortex (human α-synuclein; [10]): significantly fewer
α-synuclein-positive cells per mm, hippocampus (human α-synuclein; [10]): significantly fewer
inclusions vs vehicle (human α-synuclein; transgenic mice, 35 mg/kg orally twice a day for 30 days): fewer inclusions
amount of farnesylated UCH-L1 in the cortex (farnesylated UCH-L1; 35 mg/kg twice a day for 30 days, membrane fraction): decreased the amount of farnesylated UCH-L1 in transgenic mice to levels similar to non-transgenic mice

C#Cc1cccc(-c2cc(=O)n(C)c3ccc(C(O)(c4ccc(Cl)cc4)c4cncn4C)cc23)c1 (stereo not shown) [OSI-754]
inclusions vs vehicle (human α-synuclein; 9 mg/kg twice a day for 90 days): fewer inclusions
α-synuclein-positive cells per mm^2, cortex (human α-synuclein; [11]): fewer α-synuclein-positive cells
α-synuclein-positive cells per mm^2, hippocampus (human α-synuclein; [11]): fewer α-synuclein-positive cells
inclusions vs vehicle (human α-synuclein; 45 mg/kg twice a day for 90 days): fewer inclusions
α-synuclein-positive cells per mm^2, cortex (human α-synuclein; [12]): fewer α-synuclein-positive cells
α-synuclein-positive cells per mm^2, hippocampus (human α-synuclein; [12]): fewer α-synuclein-positive cells
α-synuclein protein levels, cortex cytoplasmic fraction (α-synuclein [9]): lower α-synuclein protein levels
α-synuclein protein levels, cortex membrane fraction (α-synuclein [9]): lower α-synuclein protein levels
amount of farnesylated UCH-L1 in the cortex (farnesylated UCH-L1; 45 mg/kg twice a day for 30 days, normalized to actin): decreased the amount of farnesylated UCH-L1
